Laboratory results published in patent publication US20240409585A1, “MACROCYCLIC IMMUNOMODULATORS” (priority 2021, published 2024).
Bridge positions count the residues as written; N and C are the ends. Square brackets hold non-standard residues; d marks the D form. Peptide text beside a SMILES is read from it. * marks the point of attachment. ξ: configuration not given here. Phe(4-CONH2) = NC(=O)c1ccc(C[C@H](N)C(=O)O)cc1; Phe(4-COOH) = N[C@@H](Cc1ccc(C(=O)O)cc1)C(=O)O; Bip = N[C@@H](Cc1ccc(-c2ccccc2)cc1)C(=O)O; Phe(3-OMe) = COc1cccc(C[C@H](N)C(=O)O)c1; Phe(3-Me) = Cc1cccc(C[C@H](N)C(=O)O)c1; 2Nal = N[C@@H](Cc1ccc2ccccc2c1)C(=O)O; Val(3-OH) = CC(C)(O)[C@H](N)C(=O)O; 4Pal = N[C@@H](Cc1ccncc1)C(=O)O; Cha = N[C@@H](CC1CCCCC1)C(=O)O; Ile(3ξ) = CCC(C)[C@H](N)C(=O)O; Thr(3ξ) = CC(O)[C@H](N)C(=O)O; NMeNle = CCCC[C@H](NC)C(=O)O; Pip = O=C(O)[C@@H]1CCCCN1; Carboxymethyl = O=C(O)C*; NMeA = CN[C@@H](C)C(=O)O; Orn = NCCC[C@H](N)C(=O)O; Pra = C#CC[C@H](N)C(=O)O; Dab = NCC[C@H](N)C(=O)O; Dap = NC[C@H](N)C(=O)O

Target: T1, PE-labeled human PD-L1-Ig binding to Jurkat cell line over-expressing human PD-1 (Jurkat-PD-1) (Homo sapiens, UniProt Q15116)
T1 construct: expressed in transfected cells; host or cells: Jurkat
Assay: Jurkat-PD-1 Cell Binding High-Content Screening Assay (CBA): Method 1
Settings: Jurkat-hPD-1 cells, PE-labeled PD-L1-Ig 20 nM final; read-out: Jurkat HPDL1 PD1 IC50 (uM) (Method 1)

T1 sequence (Q15116 25-288): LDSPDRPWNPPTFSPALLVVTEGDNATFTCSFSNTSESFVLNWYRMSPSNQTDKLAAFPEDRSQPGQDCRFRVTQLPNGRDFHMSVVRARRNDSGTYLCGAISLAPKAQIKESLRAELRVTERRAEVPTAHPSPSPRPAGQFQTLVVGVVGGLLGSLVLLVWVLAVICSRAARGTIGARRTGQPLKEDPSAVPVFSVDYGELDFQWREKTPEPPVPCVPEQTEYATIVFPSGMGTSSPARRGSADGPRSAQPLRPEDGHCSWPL

Compound	IC50 [µM]
Cc1cccc(C[C@@H]2NC(=O)[C@H](CC(=O)O)NC(=O)[C@H](Cc3ccc(OCC(=O)O)cc3)NC(=O)[C@H](C(C)O)NC(=O)CSC[C@@H](C(=O)N[C@@H](CO)C(N)=O)NC(=O)[C@H](CO)NC(=O)[C@H](C(C)(C)O)NC(=O)[C@H](CC3CCCCC3)NC(=O)[C@H](CCN)NC(=O)[C@@H](CC(C)C)NC(=O)[C@H](C)N(C)C(=O)[C@H](Cc3ccc(C(=O)O)cc3)NC(=O)[C@H](Cc3ccc(-c4ccccc4)cc3)NC(=O)[C@H](Cc3ccc(C(N)=O)cc3)NC2=O)c1 (stereo partly drawn) [Compound 2181] ({CH2CO}-[Thr(3ξ)]Y(Carboxymethyl)D[Phe(3-Me)][Phe(4-CONH2)][Bip][Phe(4-COOH)][NMeA][dL][Dab][Cha][Val(3-OH)]SCS-NH2; thioether N-14)	0.05
CCC(C)[C@@H]1NC(=O)[C@H](Cc2ccc(-c3ccccc3)cc2)NC(=O)[C@H](C(C)C)NC(=O)[C@H](Cc2c[nH]c3ccccc23)NC(=O)[C@H](CC(=O)O)NC(=O)[C@H](Cc2ccc(O)cc2)NC(=O)[C@H](Cc2ccncc2)NC(=O)CSC[C@@H](C(=O)N[C@@H](CC(=O)O)C(=O)N[C@@H](CCN)C(=O)O)NC(=O)[C@H](C(C)O)NC(=O)[C@H](C(C)C)NC(=O)[C@H](CC2CCCCC2)NC(=O)[C@H](CC(N)=O)NC(=O)[C@@H](CC(C)C)NC(=O)[C@H](C)N(C)C1=O (stereo partly drawn) [Compound 2001] ({CH2CO}-[4Pal]YDWV[Bip][Ile(3ξ)][NMeA][dL]N[Cha]V[Thr(3ξ)]CD[Dab]-OH; thioether N-14)	0.11
Cc1cccc(C[C@@H]2NC(=O)[C@H](CC(=O)O)NC(=O)[C@H](Cc3ccc(O)cc3)NC(=O)[C@H](CN)NC(=O)CSC[C@@H](C(=O)N[C@@H](C)C(N)=O)NC(=O)[C@H]([C@@H](C)O)NC(=O)[C@H](C(C)C)NC(=O)[C@H](CC(C)C)NC(=O)[C@H](CCN)NC(=O)[C@@H](CC(C)C)NC(=O)[C@H](C)N(C)C(=O)[C@H](C(C)C)NC(=O)[C@H](Cc3ccc(-c4ccccc4)cc3)NC(=O)[C@H](C(C)C)NC2=O)c1 [Compound 1428] ({CH2CO}-[Dap]YD[Phe(3-Me)]V[Bip]V[NMeA][dL][Dab]LVTCA-NH2; thioether N-14)	0.04
CC(C)C[C@@H]1NC(=O)[C@H](Cc2c[nH]c3ccccc23)NC(=O)[C@H](CC(=O)O)NC(=O)[C@H](Cc2ccc3ccccc3c2)NC(=O)[C@H](Cc2ccccc2)NC(=O)CSC[C@@H](C(=O)N[C@@H](C)C(N)=O)NC(=O)[C@H](CO)NC(=O)[C@H](C(C)C)NC(=O)[C@H](CC(C)C)NC(=O)[C@H](CC(N)=O)NC(=O)[C@@H](C)NC(=O)[C@H](C)N(C)C(=O)[C@H](C(C)C)NC(=O)[C@H](Cc2ccc(-c3ccccc3)cc2)NC1=O [Compound 1800] ({CH2CO}-F[2Nal]DWL[Bip]V[NMeA][dA]NLVSCA-NH2; thioether N-14)	0.18
CCCC[C@H]1C(=O)N[C@H](C)C(=O)N[C@@H](CCN)C(=O)N[C@@H](CC2CCCCC2)C(=O)N[C@@H](C(C)C)C(=O)N[C@@H](CO)C(=O)N[C@H](C(=O)N[C@@H](CC(N)=O)C(N)=O)CSCC(=O)N[C@@H](Cc2ccncc2)C(=O)N[C@@H](Cc2ccc(C(=O)O)cc2)C(=O)N[C@@H](CC(=O)O)C(=O)N[C@@H](Cc2c[nH]c3ccccc23)C(=O)N[C@@H](C(C)C)C(=O)N[C@@H](Cc2ccc(-c3ccccc3)cc2)C(=O)N[C@@H](CCCN)C(=O)N1C [Compound 2090] ({CH2CO}-[4Pal][Phe(4-COOH)]DWV[Bip][Orn][NMeNle][dA][Dab][Cha]VSCN-NH2; thioether N-14)	0.14
CC(C)C[C@@H]1NC(=O)[C@H](Cc2c[nH]c3ccccc23)NC(=O)[C@H](CC(=O)O)NC(=O)[C@H](Cc2ccncc2)NC(=O)[C@H](CN)NC(=O)CSC[C@@H](C(=O)NCC(N)=O)NC(=O)[C@H](CO)NC(=O)[C@H](C(C)C)NC(=O)[C@H](CC(C)C)NC(=O)[C@H](CC(N)=O)NC(=O)[C@@H](CC(C)C)NC(=O)[C@H](C)N(C)C(=O)[C@H](C(C)C)NC(=O)[C@H](Cc2ccc(-c3ccccc3)cc2)NC1=O [Compound 1549] ({CH2CO}-[Dap][4Pal]DWL[Bip]V[NMeA][dL]NLVSCG-NH2; thioether N-14)	0.04
Cc1cccc(C[C@@H]2NC(=O)[C@H](CC(=O)O)NC(=O)[C@H](Cc3ccc(OCC(=O)O)cc3)NC(=O)[C@H](CN)NC(=O)CSC[C@@H](C(N)=O)NC(=O)[C@H]([C@@H](C)O)NC(=O)[C@H](C(C)C)NC(=O)[C@H](CC3CCCCC3)NC(=O)[C@H](CCN)NC(=O)[C@@H](CC(C)C)NC(=O)[C@@H]3CCCCN3C(=O)[C@H](Cc3ccc(OCC(=O)O)cc3)NC(=O)[C@H](Cc3ccc(-c4ccccc4)cc3)NC(=O)[C@H](Cc3ccc(OCC(=O)O)cc3)NC2=O)c1 [Compound 1891] ({CH2CO}-[Dap]Y(Carboxymethyl)D[Phe(3-Me)]Y(Carboxymethyl)[Bip]Y(Carboxymethyl)[Pip][dL][Dab][Cha]VTC-NH2; thioether N-14)	0.15
CC(C)C[C@@H]1NC(=O)[C@H](CCN)NC(=O)[C@@H](CC(C)C)NC(=O)[C@H](C)N(C)C(=O)[C@H](CCCNC(=N)N)NC(=O)[C@H](Cc2ccc(-c3ccccc3)cc2)NC(=O)[C@H](C(C)C)NC(=O)[C@H](Cc2c[nH]c3ccccc23)NC(=O)[C@H](CC(=O)O)NC(=O)[C@H](Cc2ccc(O)cc2)NC(=O)[C@H](Cc2ccccc2)NC(=O)CSC[C@@H](C(=O)N[C@H](C)C(N)=O)NC(=O)[C@H]([C@@H](C)O)NC(=O)[C@H](C(C)C)NC1=O [Compound 1170] ({CH2CO}-FYDWV[Bip]R[NMeA][dL][Dab]LVTC[dA]-NH2; thioether N-14)	0.05
CC(C)C[C@@H]1NC(=O)[C@H](CCN)NC(=O)[C@@H](CC(C)C)NC(=O)[C@H](C)N(C)C(=O)[C@H](CCCNC(=N)N)NC(=O)[C@H](Cc2ccc(-c3ccccc3)cc2)NC(=O)[C@H](C(C)C)NC(=O)[C@H](Cc2c[nH]c3ccccc23)NC(=O)[C@H](CC(=O)O)NC(=O)[C@H](Cc2cnc[nH]2)NC(=O)[C@H](CC(N)=O)NC(=O)CSC[C@@H](C(=O)N[C@@H](C)C(N)=O)NC(=O)[C@H]([C@@H](C)O)NC(=O)[C@H](C(C)C)NC1=O [Compound 1137] ({CH2CO}-NHDWV[Bip]R[NMeA][dL][Dab]LVTCA-NH2; thioether N-14)	0.27

Results, then the molecule that gave them:

IC50 [µM]	Compound
0.04	CCC(C)[C@@H]1NC(=O)[C@H](Cc2ccc(-c3ccccc3)cc2)NC(=O)[C@H](CC(C)C)NC(=O)[C@H](Cc2c[nH]c3ccccc23)NC(=O)[C@H](CC(=O)O)NC(=O)[C@H](Cc2ccc(C(=O)O)cc2)NC(=O)[C@H](Cc2ccc(OCC(=O)O)cc2)NC(=O)CSC[C@@H](C(=O)N[C@@H](CC(N)=O)C(N)=O)NC(=O)[C@H](CO)NC(=O)[C@H](C(C)C)NC(=O)[C@H](CC2CCCCC2)NC(=O)[C@H](CCN)NC(=O)[C@@H](CC(C)C)NC(=O)[C@H](C)N(C)C1=O (stereo partly drawn) [Compound 1917] ({CH2CO}-Y(Carboxymethyl)[Phe(4-COOH)]DWL[Bip][Ile(3ξ)][NMeA][dL][Dab][Cha]VSCN-NH2; thioether N-14)
0.04	CC[C@H](C)[C@@H]1NC(=O)[C@H](Cc2ccc(-c3ccccc3)cc2)NC(=O)[C@H](C(C)C)NC(=O)[C@H](Cc2c[nH]c3ccccc23)NC(=O)[C@H](CC(=O)O)NC(=O)[C@H](Cc2ccc(O)cc2)NC(=O)[C@H](Cc2ccc(OCC(=O)O)cc2)NC(=O)CSC[C@@H](C(=O)N[C@@H](C)C(N)=O)NC(=O)[C@H]([C@@H](C)O)NC(=O)[C@H](C(C)C)NC(=O)[C@H](CC(C)C)NC(=O)[C@H](CCCNC(=N)N)NC(=O)[C@@H](CC(C)C)NC(=O)[C@H](C)N(C)C1=O [Compound 1489] ({CH2CO}-Y(Carboxymethyl)YDWV[Bip]I[NMeA][dL]RLVTCA-NH2; thioether N-14)
0.02	COc1cccc(C[C@@H]2NC(=O)[C@H](CC(=O)O)NC(=O)[C@H](Cc3ccc(O)cc3)NC(=O)[C@H](Cc3ccccc3)NC(=O)CSC[C@@H](C(=O)N[C@@H](C)C(N)=O)NC(=O)[C@H](CO)NC(=O)[C@H](C(C)C)NC(=O)[C@H](CC(C)C)NC(=O)[C@H](CC(N)=O)NC(=O)[C@@H](C)NC(=O)[C@H](C)N(C)C(=O)[C@H](C(C)C)NC(=O)[C@H](Cc3ccc(-c4ccccc4)cc3)NC(=O)[C@H](CC(C)C)NC2=O)c1 [Compound 1739] ({CH2CO}-FYD[Phe(3-OMe)]L[Bip]V[NMeA][dA]NLVSCA-NH2; thioether N-14)
0.01	CC(C)C[C@@H]1NC(=O)[C@H](Cc2c[nH]c3ccccc23)NC(=O)[C@H](CC(=O)O)NC(=O)[C@H](Cc2ccc(O)cc2)NC(=O)[C@H](Cc2ccccc2)NC(=O)CSC[C@@H](C(=O)N[C@@H](C)C(=O)N[C@@H](CCCN)C(=O)O)NC(=O)[C@H](CO)NC(=O)[C@H](C(C)C)NC(=O)[C@H](CC(C)C)NC(=O)[C@H](CC(N)=O)NC(=O)[C@@H](CC(C)C)NC(=O)[C@H](C)N(C)C(=O)[C@H](C(C)C)NC(=O)[C@H](Cc2ccc(-c3ccccc3)cc2)NC1=O [Compound 2238] ({CH2CO}-FYDWL[Bip]V[NMeA][dL]NLVSCA[Orn]-OH; thioether N-14)
0.01	CCNC(=O)[C@H](CCN)NC(=O)[C@@H]1CSCC(=O)N[C@@H](CCN)C(=O)N[C@@H](Cc2ccc(C(=O)O)cc2)C(=O)N[C@@H](CC(=O)O)C(=O)N[C@@H](Cc2c[nH]c3ccccc23)C(=O)N[C@@H](CC(C)C)C(=O)N[C@@H](Cc2ccc(-c3ccccc3)cc2)C(=O)N[C@@H]([C@@H](C)CC)C(=O)N(C)[C@@H](C)C(=O)N[C@H](CC(C)C)C(=O)N[C@@H](CCN)C(=O)N[C@@H](CC2CCCCC2)C(=O)N[C@@H](C(C)(C)O)C(=O)N[C@@H](CO)C(=O)N1 [Compound 1850] ({CH2CO}-[Dab][Phe(4-COOH)]DWL[Bip]I[NMeA][dL][Dab][Cha][Val(3-OH)]SC[Dab]-NHEt; thioether N-14)
0.01	C#CC[C@H](NC(=O)[C@@H](C)NC(=O)[C@@H]1CSCC(=O)N[C@@H](Cc2ccc(OCC(=O)O)cc2)C(=O)N[C@@H](Cc2ccc(C(=O)O)cc2)C(=O)N[C@@H](CC(=O)O)C(=O)N[C@@H](Cc2c[nH]c3ccccc23)C(=O)N[C@@H](CC(C)C)C(=O)N[C@@H](Cc2ccc(-c3ccccc3)cc2)C(=O)N[C@@H](C(C)C)C(=O)N(C)[C@@H](C)C(=O)N[C@H](CC(C)C)C(=O)N[C@@H](CCN)C(=O)N[C@@H](CC2CCCCC2)C(=O)N[C@@H](C(C)(C)O)C(=O)N[C@@H](CO)C(=O)N1)C(=O)O [Compound 1941] ({CH2CO}-Y(Carboxymethyl)[Phe(4-COOH)]DWL[Bip]V[NMeA][dL][Dab][Cha][Val(3-OH)]SC[dA][Pra]-OH; thioether N-14)
